Values of other authors as cited in paper PMC12812009, “Optimization of 4‐Amino‐2‐Pyridone Inhibitors of Proprotein Convertase Subtilisin/Kexin Type 9: Integrating Structure–Activity and Structure–Metabolism Relationships” (Chemmedchem, 2025).

Test system: circulating PCSK9
Design: method as in PMID 38160616
Settings: mice; cited from earlier work

SMILES: Cc1cc(NCc2ccc(C(F)(F)F)cc2)cc(=O)n1Cc1ccc(C(F)(F)F)cc1 [Compound 5c]
- circulating PCSK9 levels in vivo (in words): did not demonstrate a significant reduction in circulating PCSK9 levels
